The values that follow come from patent US20200079758A1, “[4-(PHENYLSULFONYL)PIPERAZIN-1-YL](1H-1,2,3-TRIAZOL-4-YL)METHANONES” (priority 2016, published 2020).

For this assay, the target named is T1, recombinant human AKR1C3 (Homo sapiens, UniProt P42330).
T1 construct: GST (cleaved yes); made in house; host or cells: E. coli
T1 sequence (P42330 1-323): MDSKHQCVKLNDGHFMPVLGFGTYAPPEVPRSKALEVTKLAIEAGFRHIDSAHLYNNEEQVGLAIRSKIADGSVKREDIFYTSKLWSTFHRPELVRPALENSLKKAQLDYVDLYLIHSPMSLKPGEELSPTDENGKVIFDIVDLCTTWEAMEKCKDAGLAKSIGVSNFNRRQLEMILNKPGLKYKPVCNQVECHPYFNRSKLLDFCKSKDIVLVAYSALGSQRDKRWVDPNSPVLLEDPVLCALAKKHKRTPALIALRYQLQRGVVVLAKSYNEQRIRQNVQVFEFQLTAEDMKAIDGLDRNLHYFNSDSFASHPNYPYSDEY
Description: AKR1C3-inhibitory activity assay (generation of Coumberol from Coumberone). The format is biochemical. To be noted: Coumberone 0.3 μM, NADPH 10 μM, 22° C., typically 90 min, average or median values. An outline of the steps: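 Recombinant human AKR1C3 (E. coli GST fusion, GST removed; ~1 nM) preincubated 15 min with compound, then NADPH 10 μM and Coumberone 0.3 μM (final), 22 °C, typically 90 min, in 50 mM K-phosphate pH 7. Stopped with EM-1404 (1 μM final); Coumberol fluorescence read at 520 nm (ex 380 nm), normalized to no-inhibitor and no-enzyme controls.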
By IC50 is commonly meant the concentration needed to halve the response being measured. Turning to `C[C@@H]1CN(C(=O)c2cnn[nH]2)[C@@H](C)CN1S(=O)(=O)c1cc(Cl)ccc1Cl` [Example 4, {(2S,5R)-4-[(2,5-dichlorophenyl)sulfonyl]-2,5-dimethylpiperazin-1-yl}(1H-1,2,3-triazol-5-yl)methanone], the IC50 worked out at 2 nM. As for `Cc1cc(C)c(S(=O)(=O)N2CCN(C(=O)c3cnn[nH]3)CC2(C)C)c(C)c1` [Example 113, {3,3-dimethyl-4-[(2,4,6-trimethylphenyl)sulfonyl]piperazin-1-yl}(1H-1,2,3-triazol-5-yl)methanone], the IC50 is 39 nM.

Turning to `C[C@@H]1CN(S(=O)(=O)c2ccc(F)c(Cl)c2)C[C@H](C)N1C(=O)c1cnn[nH]1` [Example 100, {(2R,6S)-4-[(3-chloro-4-fluorophenyl)sulfonyl]-2,6-dimethylpiperazin-1-yl}(1H-1,2,3-triazol-5-yl)methanone], the half-inhibitory concentration (IC50) came to 20 nM. As to `CC1(C)CN(C(=O)c2cnn[nH]2)CCN1S(=O)(=O)c1ccccc1F` [Example 34, {4-[(2-fluorophenyl)sulfonyl]-3,3-dimethylpiperazin-1-yl}(1H-1,2,3-triazol-5-yl)methanone], the concentration for half-maximal inhibition (IC50) was determined as 16 nM. The same measure for `COc1cc(C)ccc1S(=O)(=O)N1CCN(C(=O)c2cnn[nH]2)CC1(C)C` [Example 133, {4-[(2-methoxy-4-methylphenyl)sulfonyl]-3,3-dimethylpiperazin-1-yl}(1H-1,2,3-triazol-5-yl)methanone]: 16 nM; for `C[C@@H]1CN(C(=O)c2cnn[nH]2)[C@@H](C)CN1S(=O)(=O)c1ccccc1F` [Example 5, {(2S,5R)-4-[(2-fluorophenyl)sulfonyl]-2,5-dimethylpiperazin-1-yl}(1H-1,2,3-triazol-5-yl)methanone]: 2 nM. The figure for `C[C@@H]1CN(C(=O)c2cnn[nH]2)[C@@H](C)CN1S(=O)(=O)c1cccc2ccccc12` [Example 65, [(2S,5R)-2,5-dimethyl-4-(naphthalen-1-ylsulfonyl)piperazin-1-yl](1H-1,2,3-triazol-5-yl)methanone] is 2 nM. The same measure for `C[C@@H]1CN(S(=O)(=O)c2cc(C(F)(F)F)cc(C(F)(F)F)c2)C[C@H](C)N1C(=O)c1cnn[nH]1` [Example 98, [(2R,6S)-4-{[3,5-bis(trifluoromethyl)phenyl]sulfonyl}-2,6-dimethylpiperazin-1-yl](1H-1,2,3-triazol-5-yl)methanone]: 56 nM; for `C[C@@H]1CN(S(=O)(=O)c2ccc(F)c(F)c2)C[C@H](C)N1C(=O)c1c[nH]nn1` [Example 60, {(2R,6S)-4-[(3,4-difluorophenyl)sulfonyl]-2,6-dimethylpiperazin-1-yl}(1H-1,2,3-triazol-4-yl)methanone]: 47 nM.

With `C[C@@H]1CN(S(=O)(=O)c2ccccc2)C[C@H](C)N1C(=O)c1c[nH]nn1` [Example 18, [(2R,6S)-2,6-dimethyl-4-(phenylsulfonyl)piperazin-1-yl](1H-1,2,3-triazol-4-yl)methanone], the IC50 was 11 nM.

Take `Cc1cccc(S(=O)(=O)N2C[C@H](C)N(C(=O)c3cnn[nH]3)C[C@H]2C)c1` [Example 75, {(2S,5R)-2,5-dimethyl-4-[(3-methylphenyl)sulfonyl]piperazin-1-yl}(1H-1,2,3-triazol-5-yl)methanone]: the IC50 was found to be 1 nM. The same measure for `CC1(C)CN(C(=O)c2cnn[nH]2)CCN1S(=O)(=O)c1ccc([N+](=O)[O-])cc1` [Example 111, {3,3-dimethyl-4-[(4-nitrophenyl)sulfonyl]piperazin-1-yl}(1H-1,2,3-triazol-5-yl)methanone]: 89 nM; for `C[C@@H]1CN(C(=O)c2cnn[nH]2)C[C@H](C)N1S(=O)(=O)c1cccc(Cl)c1` [Example 39, {(3R,5S)-4-[(3-chlorophenyl)sulfonyl]-3,5-dimethylpiperazin-1-yl}(1H-1,2,3-triazol-5-yl)methanone]: 3 nM. Turning to `C[C@@H]1CN(C(=O)c2cnn[nH]2)[C@@H](C)CN1S(=O)(=O)c1cc(Cl)ccc1C(F)(F)F` [Example 89, [(2S,5R)-4-{[5-chloro-2-(trifluoromethyl)phenyl]sulfonyl}-2,5-dimethylpiperazin-1-yl](1H-1,2,3-triazol-5-yl)methanone], the half-maximal inhibitory concentration (IC50) turned out to be 2 nM. The figure for `CC1(C)CN(C(=O)c2cnn[nH]2)CCN1S(=O)(=O)c1cccc2c1OCC2` [Example 135, [4-(2,3-dihydro-1-benzofuran-7-ylsulfonyl)-3,3-dimethylpiperazin-1-yl](1H-1,2,3-triazol-5-yl)methanone] is 4 nM; for `CC1(C)CN(C(=O)c2cnn[nH]2)CCN1S(=O)(=O)c1cccc2nsnc12` [Example 121, [4-(2,1,3-benzothiadiazol-4-ylsulfonyl)-3,3-dimethylpiperazin-1-yl](1H-1,2,3-triazol-5-yl)methanone] it is 29 nM; for `CC1(C)CN(C(=O)c2cnn[nH]2)CCN1S(=O)(=O)c1ccccc1Cl` [Example 32, {4-[(2-chlorophenyl)sulfonyl]-3,3-dimethylpiperazin-1-yl}(1H-1,2,3-triazol-5-yl)methanone] it is 15 nM.

On to `CC1(C)CN(C(=O)c2c[nH]nn2)CCN1S(=O)(=O)c1ccccc1C(F)(F)F` [Example 27, (3,3-dimethyl-4-{[2-(trifluoromethyl)phenyl]sulfonyl}piperazin-1-yl)(1H-1,2,3-triazol-4-yl)methanone], for which the IC50 was 7 nM.

For `Cc1cc(Cl)cc(S(=O)(=O)N2CCN(C(=O)c3cnn[nH]3)CC2(C)C)c1` [Example 140, {4-[(3-chloro-5-methylphenyl)sulfonyl]-3,3-dimethylpiperazin-1-yl}(1H-1,2,3-triazol-5-yl)methanone], the IC50 came to 2 nM. The figure for `CC(=O)Nc1ccc(S(=O)(=O)N2C[C@H](C)N(C(=O)c3cnn[nH]3)C[C@H]2C)cc1` [Example 62, N-(4-{[(2R,5S)-2,5-dimethyl-4-(1H-1,2,3-triazol-5-ylcarbonyl)piperazin-1-yl]sulfonyl}phenyl)acetamide] is 88 nM; for `CC1(C)CN(C(=O)c2cnn[nH]2)CCN1S(=O)(=O)c1ccccc1[N+](=O)[O-]` [Example 114, {3,3-dimethyl-4-[(2-nitrophenyl)sulfonyl]piperazin-1-yl}(1H-1,2,3-triazol-5-yl)methanone] it is 10 nM; for `CC1(C)CN(C(=O)c2cnn[nH]2)CCN1S(=O)(=O)c1ccc2c(c1)OCO2` [Example 132, [4-(1,3-benzodioxol-5-ylsulfonyl)-3,3-dimethylpiperazin-1-yl](1H-1,2,3-triazol-5-yl)methanone] it is 22 nM. The figure for `C[C@@H]1CN(S(=O)(=O)c2cccc3ccccc23)C[C@H](C)N1C(=O)c1cnn[nH]1` [Example 96, [(2R,6S)-2,6-dimethyl-4-(naphthalen-1-ylsulfonyl)piperazin-1-yl](1H-1,2,3-triazol-5-yl)methanone] is 2 nM. The same measure for `COc1ccc(OC)c(S(=O)(=O)N2CCN(C(=O)c3cnn[nH]3)CC2(C)C)c1` [Example 115, {4-[(2,5-dimethoxyphenyl)sulfonyl]-3,3-dimethylpiperazin-1-yl}(1H-1,2,3-triazol-5-yl)methanone]: 208 nM; for `C[C@@H]1CN(C(=O)c2cnn[nH]2)[C@@H](C)CN1S(=O)(=O)c1ccc(O)cc1` [Example 17, {(2S,5R)-4-[(4-hydroxyphenyl)sulfonyl]-2,5-dimethylpiperazin-1-yl}(1H-1,2,3-triazol-5-yl)methanone]: 12 nM; for `CC1(C)CN(C(=O)c2c[nH]nn2)CCN1S(=O)(=O)c1ccccc1` [Example 19, [3,3-dimethyl-4-(phenylsulfonyl)piperazin-1-yl](1H-1,2,3-triazol-4-yl)methanone]: 17 nM. For `C[C@@H]1CN(C(=O)c2cnn[nH]2)[C@@H](C)CN1S(=O)(=O)c1ccccc1C(F)(F)F` [Example 6, [(2S,5R)-2,5-dimethyl-4-{[2-(trifluoromethyl)phenyl]sulfonyl}piperazin-1-yl](1H-1,2,3-triazol-5-yl)methanone], the IC50 came out at 2 nM. The figure for `C[C@@H]1CN(S(=O)(=O)c2ccccc2-c2ccccc2)C[C@H](C)N1C(=O)c1cnn[nH]1` [Example 107, [(2R,6S)-4-(biphenyl-2-ylsulfonyl)-2,6-dimethylpiperazin-1-yl](1H-1,2,3-triazol-5-yl)methanone] is 245 nM.

`C[C@@H]1CN(S(=O)(=O)c2cc(Cl)cc(Cl)c2)C[C@H](C)N1C(=O)c1c[nH]nn1` [Example 58, {(2R,6S)-4-[(3,5-dichlorophenyl)sulfonyl]-2,6-dimethylpiperazin-1-yl}(1H-1,2,3-triazol-4-yl)methanone]: the IC50 was determined as 2 nM.

`CC1(C)CN(C(=O)c2c[nH]nn2)CCN1S(=O)(=O)c1cccc(Cl)c1F` [Example 24, {4-[(3-chloro-2-fluorophenyl)sulfonyl]-3,3-dimethylpiperazin-1-yl}(1H-1,2,3-triazol-4-yl)methanone]: the IC50 was 8 nM. The same measure for `C[C@@H]1CN(C(=O)c2c[nH]nn2)C[C@H](C)N1S(=O)(=O)c1ccccc1` [Example 38, [(3R,5S)-3,5-dimethyl-4-(phenylsulfonyl)piperazin-1-yl](1H-1,2,3-triazol-4-yl)methanone]: 14 nM; for `Cc1ccc(C)c(S(=O)(=O)N2C[C@H](C)N(C(=O)c3cnn[nH]3)C[C@H]2C)c1` [Example 70, {(2S,5R)-4-[(2,5-dimethylphenyl)sulfonyl]-2,5-dimethylpiperazin-1-yl}(1H-1,2,3-triazol-5-yl)methanone]: 1 nM.
